In patent US20110281933A1, “METHODS AND COMPOSITIONS FOR THE MANAGEMENT OF CARDIOVASCULAR DISEASE WITH OLIGONUCLEOTIDES” (Saint Louis University, priority 2010, published 2011):

Columns and labels:
[1] = system: miR-33; assay: Bile secretion in vivo after anti-miR-33 (Example 6); set-up: species or system mice; settings: 5 mpk i.v.
Excerpt: (A) Pooled bile recovered from the gallbladder of mice (n=5) injected with scrambled or anti-miR-33 oligonucleotides (5 mpk, i.v.) for 2 consecutive days. Mice were then kept for 7 days and fasted overnight before sample collection. (B) Levels of phosphatidylcholine (PC), cholesterol (chol) and bile acids present in pooled bile. (C) Relative expression of hepatic canalicular transporters in mice (n=5) following silencing of miR-33. Data are shown as mean±SD. *P<0.05 (unpaired T-test).
(§1) RNA and protein analysis. RNA was isolated from cells with Trizol reagent, using a slight modification of the manufacturer's protocol to preserve miRNAs. Briefly, following homogenization in 2 mL of Trizol, […] of chloroform and […] if 2 mol/L sodium acetate pH 4.2 were added before the separation of the organic and aqueous phases. The latter was combined with […] of acid phenol:chloroform:[…], and centrifuged again. RNAs in the aqueous phase was then precipitated with 3 mL of ethanol overnight at 4° C. After centrifugation, the RNA pellet was resuspended in water and stored at −80° C. until use. Alternatively, RNAs were isolated using the mirVana miRNA Isolation Kit (Ambion). cDNAs were generated from 5 μg of DNase1-treated RNA using Superscript III and Random hexamers (Invitrogen). Real-time PCR was done with Sybr green reagent (Roche), using a LightCycler 480 real-time PCR detection system (Roche). Values were normalized to GAPDH and calculated using the comparative CT method. Protein levels were determined by Western blot, using 50 ug total liver protein extract, and a 1:1,000 dilution of anti-ABCA1 antibody (Novus Biologicals), following standard protocols.
(§2) Murine Studies. Male C57Bl/6J mice were obtained from Jackson Laboratories, and maintained in a 12 hour/12 hour light/dark cycle with unlimited access to chow and water. In examples 1-5, animals (n=6-8 per group) were infused with adenoviral vectors (2×10^9 pfu) via tail vein injection. Blood was collected 5 days post-infusion, and total cholesterol and HDL-cholesterol were assayed enzymatically with the Cholesterol E and HDL-cholesterol E kits from Waco Chemicals. In example 6-10 animals (8-10 week old, n=6 per group, unless noted otherwise) were infused via tail vein injection with adenoviral vectors (2×10^9 pfu) or antisense oligonucleotides (5 mpk, 2 consecutive days). Where indicated, mice were fed a 21% fat, 1% cholesterol, 0.5% cholate diet (Purina 5A8E). Tissues and bile were collected following overnight fasting. RCT experiments were performed as described 28. Briefly, mice were injected i.v. with oligonucleotides (5 mpk) twice for 2 weeks, and then injected i.p. with 1-1.5×10^6 [^3H]-cholesterol-loaded bone marrow-derived macrophages. Blood samples were collected at 6, 24 and 48 h after the injection of the cells. Liver, bile and the feces produced during the last 48 h were collected and flash-frozen until used. The amount of radiolabeled sterols was determined by scintillation. All studies involving mice were approved by the IACUC at Saint Louis University.
Anti-miR-33 increases bile secretion in vivo. In an effort to understand the in vivo physiological importance of miR-33, the inventor injected mice with (5 mpk) of locked nucleic acid (LNA) scrambled sequence or LNA anti-miR-33 oligonucleotides 5-[…]-3′ (SEQ ID NO: 8) in saline (0.9% NaCl) via tail vein injection, at 5 mg/Kg (mpk) body weight. Mice were then kept with unlimited access to water and regular chow for a week. The amount of bile collected from the gallbladders of fasted mice receiving anti-miR-33 oligonucleotides was almost double of that collected from control mice (FIG. 6A). […] Next, the inventor tested the expression of several hepatocyte canalicular transporters that are known to mediate bile secretion.

[2] = system: miR-33; assay: Silencing miR-33 rescues liver damage induced by simvastatin and cholate diet (Example 9); format: in vivo, mice
Excerpt: Samples were collected after 7 days on the diet, or when mice appeared moribund. […] (B) Percentage of body weight, compared to the initial mass of each animal. Data are shown as mean±SD. (C) Macroscopic appearance of livers. (D) Liver to total body mass ratios. […] (E) Appearance of plasma. […] (G) Relative expression of hepatic canalicular transporters (upper panel) and other genes involved in bile acid and sterol homeostasis (bottom panel).
as §1
as §2, with “In examples 1-5, animals (n=6-8 per group) were infused with adenoviral vectors (2×10^9 pfu) via tail vein injection.” left out, “In example 6-10 animals (8-10 week old, n=6 per group, unless noted otherwise) were infused via tail vein injection with adenoviral vectors (2×10^9 pfu) or antisense oligonucleotides (5 mpk, 2 consecutive days). Where indicated, mice were fed a 21% fat, 1% cholesterol, 0.5% cholate diet (Purina 5A8E).” left out
Similarly bile and plasma were extracted in the presence of internal standards for each lipid class. Id.
The inventor next tested whether silencing miR-33 could rescue mammals with statin induced ERIC or cholestasis. […] Finally, the inventor studied the mRNA levels of selected hepatic genes (FIG. 10G).

[3] = system: miR-33; assay: Reverse cholesterol transport with [3H]-cholesterol-loaded macrophages (Example 10); format: in vivo, C57BL/6 mice; settings: 5 mpk
Procedure: (A) Percentage of total injected dpm in the plasma of mice treated with scrambled or anti-miR-33 oligonucleotides (5 mpk, twice a week for 2 weeks), at 6, 24 at 48 h post-injection of [3H]-cholesterol-acLDL-loaded macrophages. *P<0.05 (unpaired T-test): **P<0.01 (unpaired T-test). (B) Percentage of total injected dpm in the liver of the same mice. (C) Percentage of total injected dpm in the be recovered from the gallbladder of the same mice. **P<0.01 (unpaired T-test). (D) Percentage of total injected dpm in the feces of the same mice. **P<0.01 (unpaired T-test).
as §2
ANTI-miR-33 Treatment Results In Increased Reverse Cholesterol Transport. Biliary secretion is an essential component of the reverse cholesterol transport (RCT) pathway (Nijstad at al., (2011) Gastroenterology 140, 1043-1051) by which extrahepatic cholesterol is shuttled to the liver, secreted into bile and excreted through feces (Khera and Rader, (2010) Curr Atheroscler Rep 12, 73-81; Rader et al., (2009) J Lipid Res 50 Suppl, S189-194; Wang et al., (2007) J Clin Invest 117, 2216-2224; Wang and Rader, (2007) J Biol Chem 280, 8742-8747). An additional, liver-independent ROT pathway has been proposed that removes circulating cholesterol through the intestine directly into feces (van der Veen et al., (2009) J Biol Chem 284, 19211-19219). The inventor reasoned that the changes in be secretion observed following manipulation of miR-33 levels will result in altered RCT. […] Analysis of the bile recovered from the gallbladder confirmed that bile secretion is increased after suppression of miR-33 expression. […] Finally, the recovery of labeled sterols in the feces increased ˜2-fold in these same mice, compared to control animals (FIG. 8D).

[4] = system: C57BL/6 mice on 1% cholesterol, 0.5% cholate diet; assay: Simvastatin and cholate diet induced liver damage (Example 8); format: in vivo; settings: 50 mpk simvastatin vs saline
[5] = system: miR-33; assay: miR-33 silencing in vivo: hepatic ABCA1 and plasma HDL-cholesterol (Example 4); set-up: species or system C57BL/6 mice; settings: 5 mg/Kg/day for 3 consecutive days, vs scrambled
Procedure: as §1
Murine Studies. Male C57Bl/6J mice were obtained from Jackson Laboratories, and maintained in a 12 hour/12 hour light/dark cycle with unlimited access to chow and water. In examples 1-5, animals (n=6-8 per group) were infused with adenoviral vectors (2×10^9 pfu) via tail vein injection. […] In example 6-10 animals (8-10 week old, n=6 per group, unless noted otherwise) were infused via tail vein injection with adenoviral vectors (2×10^9 pfu) or antisense oligonucleotides (5 mpk, 2 consecutive days). […] The amount of radiolabeled sterols was determined by scintillation. […]
miR-33 modulation of physiological sterol homeostasis in vivo. To put these latter results in a physiological context, scrambled or anti-miR-33 oligonucleotides were injected into the tail veins of C57BL/6 mice (5 mg/Kg/day for 3 consecutive days), and plasma lipoprotein and cholesterol levels determined 12 days after the infusion.

[6] = 150 mpk simvastatin and cholate diet
[7] = mice that survived at the end of the experiment, vs scrambled

In the case of “5′-TGCAACTACAATGCA-3′ (LNA modifications, further chemistry not given here; listed as Homo sapiens) [LNA anti-miR-33 oligonucleotide, locked nucleic acid antisense oligonucleotide targeted to both miR-33 and miR-33 preRNA]”, the “amount of bile collected from the gallbladders” value ([1]; fasted mice after a week, vs control mice) is reported as “almost double”, the “Abcb11 mRNA levels in liver” value ([1]; vs scrambled) is reported as “significantly increased” and the “Atp8b1 mRNA levels in liver” value ([1]; vs scrambled) is reported as “significantly increased”. The “concentration of phosphatidylcholine in bile” value ([1]; vs scrambled) was “slightly elevated”, the “mRNA levels of other canalicular transporters (Abcg5, Abcg8, Abcb4) in liver” value ([1]; vs scrambled) was “remained unchanged” and the “overall content of bile acids in pooled bile” value ([1]; vs scrambled) was “did not change”. The “overall content of cholesterol in pooled bile” value ([1]; vs scrambled) was “did not change”, the survival ([2]; 5 mpk i.v. two consecutive doses, then 150 mpk simvastatin and cholate diet, n=10) was “with one exception, all mice receiving anti-miR-33 oligonucleotides survived for at least a week” and the appearance of livers [2, 6] was “appeared normal”. For the same compound, the appearance of plasma [2, 6] was “appeared clear”, the “hepatic free fatty acids, diglycerides, triglycerides and bile acids” value ([2]; 150 mpk simvastatin and cholate diet, vs control animals) was “marked decrease” and the “loss of body weight” value ([2]; 150 mpk simvastatin and cholate diet, vs scrambled) was “minimal loss”. The “hepatic expression of Atp8b1” value [2, 7] was “increased expression”, the “increased hepatic expression of Abcb11 or any other canalicular transporter” value [2, 7] was “not” and the liver/body mass ratio ([2]; vs control mice that succumbed to the diet and statin treatment) was “significantly lower”. For the same compound, the “bile secretion (bile recovered from the gallbladder)” value [3] was “is increased”, the “changes in body, liver or feces mass” value [3] was “did not observe changes” and the “amount of labeled cholesterol in circulation” value ([3]; 6, 24, 48 h, vs control animals) was “increased”. For the same compound, the “amount of labeled sterols found in the liver” value ([3]; 48 h) was “did not statistically differ”, the “contents of labeled biliary sterols (dpm/μL of bile), increase” value ([3]; corrected for volume) was 2 fold and the “recovery of labeled sterols in the feces, increase” value ([3]; feces of last 48 h, vs control animals) was roughly 2 fold.
In the case of CCC(C)(C)C(=O)O[C@H]1C[C@@H](C)C=C2C=C[C@H](C)[C@H](CC[C@@H]3C[C@@H](O)CC(=O)O3)[C@H]21 [simvastatin], the “reduction of hepatic Abcb11 levels” value [4] is reported as roughly 40%.
In the case of “anti-miR-33 oligonucleotides: anti-miR-33 oligonucleotides injected in Example 4; sequence and chemistry not stated there (antisense TGCAACTACAATGCA; LNA-modified, pattern not given here; listed as Homo sapiens)”, the “increase in HDL-cholesterol” value ([5]; 12 days after infusion) is reported as 10-15%, the “increase in hepatic ABCA1 mRNA levels” value ([5]; tail vein) is reported as 2 fold and the “increase in hepatic ABCA1 protein levels” value ([5]; tail vein) is reported as 2 fold.
